{
  "source": "patent US5281604A",
  "about": "“Angiotensin II receptor blocking 2,3,6-substituted quinazolinones” (American Cyanamid Company, priority 1993, dated 1994)",
  "test_system": "ANGIOTENSIN II (AII) VASOPRESSOR RESPONSE",
  "experiment": "AII Challenge: blockade of the angiotensin II vasopressor response in conscious spontaneously hypertensive rats",
  "type": "in vivo, rat (Male Okamoto-Aoki SHR)",
  "conditions": "3 mg/kg i.v.",
  "from_the_text": "By administering a compound of this invention to a rat, and then challenging with angiotensin II, a blockage of the vasopressor response is realized.\nConscious Male Okamoto-Aoki SHR, 16-20 weeks old, weighing approximately 330 g are purchased from Charles River Labs (Wilmington, Mass.). Conscious rats are restrained in a supine position with elastic tape. The area at the base of the tail is locally anesthetized by subcutaneous infiltration with 2% procaine. The ventral caudal artery and vein are isolated, and a cannula made of polyethylene (PE) 10-20 tubing (fused together by heat) is passed into the lower abdominal aorta and vena cava, respectively. The cannula is secured, heparinized (1,000 I.U./ml), sealed and the wound is closed. The animals are placed in plastic restraining cages in an upright position. The cannula is attached to a Statham P23Db pressure transducer, and pulsatile blood pressure is recorded to 10-15 minutes with a Gould Brush recorder. (Chan et al., (Drug Development Res., 18:75-94, 1989).\nAngiotensin II (human sequence, Sigma Chem. Co., St. Louis, Mo.) of 0.05 and 0.1 ug/kg i.v. is injected into all rats (predosing response). Then a test compound, vehicle or a known angiotensin II antagonist is administered i.v., i.p. or orally to each set of rats. The two doses of angiotensin II are given to each rat again at 30, 60, 90, 120, 180, 240 and 300 minutes post dosing the compound or vehicle. The vasopressor response of angiotensin II is measured for the increase in systolic blood pressure in mmHg. The percentage of antagonism or blockade of the vasopressor response of angiotensin II by a compound is calculated using the vasopressor response (increase in systolic blood pressure) of angiotensin II of each rat predosing the compound as 100%. A compound is considered active if at 30 mg/kg i.v. it antagonized at least 50% of the response.",
  "key": {"[1]": {"conditions": "AII 0.05 mcg/kg IV, 30 min post dose"}, "[2]": {"conditions": "AII 0.05 mcg/kg IV, 60 min post dose"}, "[3]": {"conditions": "AII 0.05 mcg/kg IV, 90 min post dose"}, "[4]": {"conditions": "AII 0.05 mcg/kg IV, 120 min post dose"}, "[5]": {"conditions": "AII 0.05 mcg/kg IV, 180 min post dose"}, "[6]": {"conditions": "AII 0.05 mcg/kg IV, 240 min post dose"}, "[7]": {"conditions": "AII 0.05 mcg/kg IV, 300 min post dose"}, "[8]": {"conditions": "AII 0.1 mcg/kg IV, 30 min post dose"}, "[9]": {"conditions": "AII 0.1 mcg/kg IV, 60 min post dose"}, "[10]": {"conditions": "AII 0.1 mcg/kg IV, 90 min post dose"}, "[11]": {"conditions": "AII 0.1 mcg/kg IV, 120 min post dose"}, "[12]": {"conditions": "AII 0.1 mcg/kg IV, 180 min post dose"}, "[13]": {"conditions": "AII 0.1 mcg/kg IV, 240 min post dose"}, "[14]": {"conditions": "AII 0.1 mcg/kg IV, 300 min post dose"}},
  "note": "Where “and” joins values, the source holds several entries; their conditions need not be identical. Identical values can stand only once.",
  "data": [
    {"smiles": "CCCCc1nc2ccc(C3CC4C(O3)ON3C4CCC3(C)C)cc2c(=O)n1Cc1ccc(-c2ccccc2-c2nnn[nH]2)cc1", "note": "(stereo not shown) [Example 14]", "values": [
      {"measurement": "% Inhibition", "setting": "[1]", "result": 79, "unit": "%"},
      {"measurement": "Average Change", "setting": "[1]", "result": 7.5, "unit": "mmHg"},
      {"measurement": "Control Before AII (single rat)", "setting": "[1]", "result": "225 mmHg and 240 mmHg"},
      {"measurement": "Response After AII (single rat)", "setting": "[1]", "result": "225 mmHg and 250 mmHg"},
      {"measurement": "Response Change (single rat)", "setting": "[1]", "result": "0 mmHg and 15 mmHg"},
      {"measurement": "% Inhibition", "setting": "[2]", "result": 64, "unit": "%"},
      {"measurement": "Average Change", "setting": "[2]", "result": 12.5, "unit": "mmHg"},
      {"measurement": "Control Before AII (single rat)", "setting": "[2]", "result": "225 mmHg and 240 mmHg"},
      {"measurement": "Response After AII (single rat)", "setting": "[2]", "result": "235 mmHg and 255 mmHg"},
      {"measurement": "Response Change (single rat)", "setting": "[2]", "result": "10 mmHg and 15 mmHg"},
      {"measurement": "% Inhibition", "setting": "[3]", "result": 74, "unit": "%"},
      {"measurement": "Average Change", "setting": "[3]", "result": 9, "unit": "mmHg"},
      {"measurement": "Control Before AII (single rat)", "setting": "[3]", "result": "225 mmHg and 237 mmHg"},
      {"measurement": "Response After AII (single rat)", "setting": "[3]", "result": "235 mmHg and 245 mmHg"},
      {"measurement": "Response Change (single rat)", "setting": "[3]", "result": "10 mmHg and 8 mmHg"},
      {"measurement": "% Inhibition", "setting": "[4]", "result": 76, "unit": "%"},
      {"measurement": "Average Change", "setting": "[4]", "result": 8.5, "unit": "mmHg"},
      {"measurement": "Control Before AII (single rat)", "setting": "[4]", "result": "210 mmHg and 230 mmHg"},
      {"measurement": "Response After AII (single rat)", "setting": "[4]", "result": "215 mmHg and 242 mmHg"},
      {"measurement": "Response Change (single rat)", "setting": "[4]", "result": "5 mmHg and 12 mmHg"},
      {"measurement": "% Inhibition", "setting": "[5]", "result": 76, "unit": "%"},
      {"measurement": "Average Change", "setting": "[5]", "result": 8.5, "unit": "mmHg"},
      {"measurement": "Control Before AII (single rat)", "setting": "[5]", "result": "215 mmHg and 230 mmHg"},
      {"measurement": "Response After AII (single rat)", "setting": "[5]", "result": "225 mmHg and 237 mmHg"},
      {"measurement": "Response Change (single rat)", "setting": "[5]", "result": "10 mmHg and 7 mmHg"},
      {"measurement": "% Inhibition", "setting": "[6]", "result": 71, "unit": "%"},
      {"measurement": "Average Change", "setting": "[6]", "result": 10, "unit": "mmHg"},
      {"measurement": "Control Before AII (single rat)", "setting": "[6]", "result": "205 mmHg and 230 mmHg"},
      {"measurement": "Response After AII (single rat)", "setting": "[6]", "result": "215 mmHg and 240 mmHg"},
      {"measurement": "Response Change (single rat)", "setting": "[6]", "result": 10, "unit": "mmHg"},
      {"measurement": "% Inhibition", "setting": "[7]", "result": 74, "unit": "%"},
      {"measurement": "Average Change", "setting": "[7]", "result": 9, "unit": "mmHg"},
      {"measurement": "Control Before AII (single rat)", "setting": "[7]", "result": "220 mmHg and 235 mmHg"},
      {"measurement": "Response After AII (single rat)", "setting": "[7]", "result": "228 mmHg and 245 mmHg"},
      {"measurement": "Response Change (single rat)", "setting": "[7]", "result": "8 mmHg and 10 mmHg"},
      {"measurement": "% Inhibition", "setting": "[8]", "result": 56, "unit": "%"},
      {"measurement": "Average Change", "setting": "[8]", "result": 17.5, "unit": "mmHg"},
      {"measurement": "Control Before AII (single rat)", "setting": "[8]", "result": "230 mmHg and 245 mmHg"},
      {"measurement": "Response After AII (single rat)", "setting": "[8]", "result": "240 mmHg and 270 mmHg"},
      {"measurement": "Response Change (single rat)", "setting": "[8]", "result": "10 mmHg and 25 mmHg"},
      {"measurement": "% Inhibition", "setting": "[9]", "result": 56, "unit": "%"},
      {"measurement": "Average Change", "setting": "[9]", "result": 17.5, "unit": "mmHg"},
      {"measurement": "Control Before AII (single rat)", "setting": "[9]", "result": "215 mmHg and 245 mmHg"},
      {"measurement": "Response After AII (single rat)", "setting": "[9]", "result": "235 mmHg and 260 mmHg"},
      {"measurement": "Response Change (single rat)", "setting": "[9]", "result": "20 mmHg and 15 mmHg"},
      {"measurement": "% Inhibition", "setting": "[10]", "result": 60, "unit": "%"},
      {"measurement": "Average Change", "setting": "[10]", "result": 16, "unit": "mmHg"},
      {"measurement": "Control Before AII (single rat)", "setting": "[10]", "result": "220 mmHg and 240 mmHg"},
      {"measurement": "Response After AII (single rat)", "setting": "[10]", "result": "235 mmHg and 257 mmHg"},
      {"measurement": "Response Change (single rat)", "setting": "[10]", "result": "15 mmHg and 17 mmHg"},
      {"measurement": "% Inhibition", "setting": "[11]", "result": 63, "unit": "%"},
      {"measurement": "Average Change", "setting": "[11]", "result": 15, "unit": "mmHg"},
      {"measurement": "Control Before AII (single rat)", "setting": "[11]", "result": "215 mmHg and 230 mmHg"},
      {"measurement": "Response After AII (single rat)", "setting": "[11]", "result": "230 mmHg and 245 mmHg"},
      {"measurement": "Response Change (single rat)", "setting": "[11]", "result": 15, "unit": "mmHg"},
      {"measurement": "% Inhibition", "setting": "[12]", "result": 69, "unit": "%"},
      {"measurement": "Average Change", "setting": "[12]", "result": 12.5, "unit": "mmHg"},
      {"measurement": "Control Before AII (single rat)", "setting": "[12]", "result": "215 mmHg and 230 mmHg"},
      {"measurement": "Response After AII (single rat)", "setting": "[12]", "result": "225 mmHg and 245 mmHg"},
      {"measurement": "Response Change (single rat)", "setting": "[12]", "result": "10 mmHg and 15 mmHg"},
      {"measurement": "% Inhibition", "setting": "[13]", "result": 56, "unit": "%"},
      {"measurement": "Average Change", "setting": "[13]", "result": 17.5, "unit": "mmHg"},
      {"measurement": "Control Before AII (single rat)", "setting": "[13]", "result": "215 mmHg and 225 mmHg"},
      {"measurement": "Response After AII (single rat)", "setting": "[13]", "result": "230 mmHg and 245 mmHg"},
      {"measurement": "Response Change (single rat)", "setting": "[13]", "result": "15 mmHg and 20 mmHg"},
      {"measurement": "% Inhibition", "setting": "[14]", "result": 46, "unit": "%"},
      {"measurement": "Average Change", "setting": "[14]", "result": 21.5, "unit": "mmHg"},
      {"measurement": "Control Before AII (single rat)", "setting": "[14]", "result": "215 mmHg and 235 mmHg"},
      {"measurement": "Response After AII (single rat)", "setting": "[14]", "result": "233 mmHg and 260 mmHg"},
      {"measurement": "Response Change (single rat)", "setting": "[14]", "result": "18 mmHg and 25 mmHg"}
    ]}
  ]
}
